In patent US9505780B2, “Thienopyranones as kinase and epigenetic inhibitors” (SignalRx Pharmaceuticals, Inc., priority 2014, dated 2016):

Columns and labels:
BRD4-1 = BRD4-1 (Homo sapiens (Human), UniProt O60885); experiment: BRD4 region 1 (BRD4-1) inhibition; assay type: biochemical
BRD4-2 = BRD4-2 (Homo sapiens (Human), UniProt O60885); experiment: BRD4 region 2 (BRD4-2) inhibition; assay type: biochemical
PI3Kβ = PI3Kβ (Homo sapiens (Human), UniProt P42338); experiment: PI3K beta isoform inhibition; assay type: biochemical
PI3Kβ, sequence (P42338 whole entry, canonical isoform): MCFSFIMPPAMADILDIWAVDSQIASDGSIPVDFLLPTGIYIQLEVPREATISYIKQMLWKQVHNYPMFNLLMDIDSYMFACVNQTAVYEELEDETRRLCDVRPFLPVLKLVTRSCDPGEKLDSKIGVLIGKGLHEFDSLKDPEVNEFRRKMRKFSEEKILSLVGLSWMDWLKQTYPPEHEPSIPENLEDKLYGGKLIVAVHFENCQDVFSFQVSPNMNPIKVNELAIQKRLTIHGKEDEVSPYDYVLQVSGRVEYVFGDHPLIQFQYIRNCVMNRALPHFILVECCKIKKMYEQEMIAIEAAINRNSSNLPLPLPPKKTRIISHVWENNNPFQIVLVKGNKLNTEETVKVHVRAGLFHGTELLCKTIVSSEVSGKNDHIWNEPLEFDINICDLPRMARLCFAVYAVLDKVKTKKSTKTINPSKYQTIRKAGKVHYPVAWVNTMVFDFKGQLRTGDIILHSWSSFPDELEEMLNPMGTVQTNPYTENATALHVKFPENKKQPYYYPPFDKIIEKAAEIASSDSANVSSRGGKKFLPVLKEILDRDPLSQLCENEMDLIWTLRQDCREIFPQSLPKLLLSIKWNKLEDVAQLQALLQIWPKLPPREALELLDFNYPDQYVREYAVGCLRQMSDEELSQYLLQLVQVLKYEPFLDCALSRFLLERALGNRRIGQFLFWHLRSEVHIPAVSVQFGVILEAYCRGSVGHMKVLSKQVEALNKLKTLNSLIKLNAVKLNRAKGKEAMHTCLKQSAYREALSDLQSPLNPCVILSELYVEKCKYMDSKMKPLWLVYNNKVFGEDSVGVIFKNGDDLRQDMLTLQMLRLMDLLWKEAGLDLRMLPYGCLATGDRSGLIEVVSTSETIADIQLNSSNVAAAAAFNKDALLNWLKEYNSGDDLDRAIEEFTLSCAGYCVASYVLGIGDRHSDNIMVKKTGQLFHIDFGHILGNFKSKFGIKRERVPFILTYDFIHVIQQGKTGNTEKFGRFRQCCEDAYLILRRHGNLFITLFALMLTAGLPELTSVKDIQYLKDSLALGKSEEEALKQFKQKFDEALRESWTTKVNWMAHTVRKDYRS
PI3Kβ, sequence (P27986 whole entry partner, canonical isoform): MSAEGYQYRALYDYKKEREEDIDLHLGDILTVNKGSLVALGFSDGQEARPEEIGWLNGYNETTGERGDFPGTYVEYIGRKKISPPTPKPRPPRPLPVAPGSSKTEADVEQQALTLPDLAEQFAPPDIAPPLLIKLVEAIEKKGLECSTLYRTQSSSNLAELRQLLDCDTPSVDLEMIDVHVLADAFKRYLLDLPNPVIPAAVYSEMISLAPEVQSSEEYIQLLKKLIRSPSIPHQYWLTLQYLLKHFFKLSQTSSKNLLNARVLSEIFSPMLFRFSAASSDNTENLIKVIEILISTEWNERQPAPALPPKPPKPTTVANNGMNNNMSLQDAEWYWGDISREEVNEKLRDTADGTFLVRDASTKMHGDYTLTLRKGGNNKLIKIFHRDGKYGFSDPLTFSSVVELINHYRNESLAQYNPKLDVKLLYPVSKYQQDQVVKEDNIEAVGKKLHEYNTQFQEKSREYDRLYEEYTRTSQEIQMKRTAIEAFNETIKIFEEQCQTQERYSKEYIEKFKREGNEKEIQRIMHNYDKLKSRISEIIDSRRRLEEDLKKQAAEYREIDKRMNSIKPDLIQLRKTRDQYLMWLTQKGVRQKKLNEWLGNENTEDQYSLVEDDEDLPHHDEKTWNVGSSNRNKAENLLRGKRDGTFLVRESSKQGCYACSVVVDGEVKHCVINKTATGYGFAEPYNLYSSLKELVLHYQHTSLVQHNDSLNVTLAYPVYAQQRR

PI3Kδ = PI3Kδ (Homo sapiens (Human), UniProt O00329); experiment: PI3K delta isoform inhibition; assay type: biochemical
PI3Kδ, sequence (O00329 whole entry, canonical isoform): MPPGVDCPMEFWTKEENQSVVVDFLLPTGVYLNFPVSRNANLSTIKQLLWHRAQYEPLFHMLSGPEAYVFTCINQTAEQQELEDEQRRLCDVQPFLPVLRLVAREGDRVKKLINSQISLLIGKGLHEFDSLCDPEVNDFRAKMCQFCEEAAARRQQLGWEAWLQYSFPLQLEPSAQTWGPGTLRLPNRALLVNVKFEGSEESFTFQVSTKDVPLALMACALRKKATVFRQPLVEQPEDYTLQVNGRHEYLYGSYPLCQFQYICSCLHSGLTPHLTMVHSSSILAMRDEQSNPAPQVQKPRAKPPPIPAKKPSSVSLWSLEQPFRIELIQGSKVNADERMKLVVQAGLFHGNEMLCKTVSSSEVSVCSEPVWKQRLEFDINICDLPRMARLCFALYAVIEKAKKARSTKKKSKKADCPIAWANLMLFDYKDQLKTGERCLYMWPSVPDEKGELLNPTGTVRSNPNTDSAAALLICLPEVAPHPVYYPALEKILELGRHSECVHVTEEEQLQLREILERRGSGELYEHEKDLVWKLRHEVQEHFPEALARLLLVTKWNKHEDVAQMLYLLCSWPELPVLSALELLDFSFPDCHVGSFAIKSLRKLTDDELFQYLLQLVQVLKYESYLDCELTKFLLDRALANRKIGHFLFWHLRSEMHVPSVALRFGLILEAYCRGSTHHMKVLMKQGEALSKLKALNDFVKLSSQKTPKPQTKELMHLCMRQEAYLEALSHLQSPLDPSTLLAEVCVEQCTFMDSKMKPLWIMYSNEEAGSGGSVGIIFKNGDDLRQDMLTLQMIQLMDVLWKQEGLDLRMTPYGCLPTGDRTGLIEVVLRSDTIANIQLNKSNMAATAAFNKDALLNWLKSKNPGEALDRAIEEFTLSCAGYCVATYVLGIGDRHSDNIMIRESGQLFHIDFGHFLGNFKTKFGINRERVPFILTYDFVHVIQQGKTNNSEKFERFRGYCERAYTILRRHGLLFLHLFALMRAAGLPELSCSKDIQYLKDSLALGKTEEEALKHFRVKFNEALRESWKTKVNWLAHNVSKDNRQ
PI3Kδ, sequence (P27986 whole entry partner, canonical isoform): as the sequence (P27986 whole entry partner, canonical isoform) above
Description: Inhibitory activity can be determined routinely using known methods and also front commercial vendors offering this service for kinases and bromodomain proteins. […] In vivo, PI3K inhibition can be determined from target tissue biopsies by standard tissue processing to disrupt cells and then performing Western Blot analysis to determine the presence or absence of pAKT (substrate of PI3K) relative to a control sample. The activity of a compound of the invention as an inhibitor of a bromodomain-containing protein, such as a BET protein, such as BRD2, BRD3, BRD4, and/or BRDT, or an isoform or mutant thereof may be determined in vitro, in vivo, or in a cell line. In vitro assays include assays that determine inhibition of bromodomain-containing proteins. Alternatively, inhibitor binding may be determined by running a competition experiment where a provided compound is incubated with a bromodomain-containing protein, such as a BET protein bound to known ligands, labeled or unlabeled. For example, bromodomain inhibition can be determined in vitro using Alpha Screen Technology (http://www.reactionbiology.com/webapps/site/NewsPDFs/Bromodomain%20Assay%20Platform%20for%20Drug%/20Screening%20and%20Discovery.pdf). In vivo bromodomain inhibition can be determined indirectly by evaluating the amount of protect present of proteins whose genes' transcription is influenced or controlled by the bromodomain protein, for example, the MYCN protein transcription is controlled by BRD4 (J. E. Delmore et al., Cell 2011, 146, 904-917; A. Puissant, Cancer Discov. 2013, 3, 308-323). Bromodomain inhibition may also be predicted by in silico modeling as described below in the Examples.
(§1) Several TP Scaffold compounds (structures shown in FIG. 2 and Table 3) were tested for inhibition activity against isoforms of PI3K (alpha, beta, gamma, and delta isoforms) and the bromodomain protein BRD4 at regions 1 (BRD4-1) and 2 (BRD4-2).

PI3Kγ = PI3Kγ (Homo sapiens (Human), UniProt P48736); experiment: PI3K gamma isoform inhibition; assay type: biochemical
PI3Kγ, sequence (P48736 whole entry, canonical isoform): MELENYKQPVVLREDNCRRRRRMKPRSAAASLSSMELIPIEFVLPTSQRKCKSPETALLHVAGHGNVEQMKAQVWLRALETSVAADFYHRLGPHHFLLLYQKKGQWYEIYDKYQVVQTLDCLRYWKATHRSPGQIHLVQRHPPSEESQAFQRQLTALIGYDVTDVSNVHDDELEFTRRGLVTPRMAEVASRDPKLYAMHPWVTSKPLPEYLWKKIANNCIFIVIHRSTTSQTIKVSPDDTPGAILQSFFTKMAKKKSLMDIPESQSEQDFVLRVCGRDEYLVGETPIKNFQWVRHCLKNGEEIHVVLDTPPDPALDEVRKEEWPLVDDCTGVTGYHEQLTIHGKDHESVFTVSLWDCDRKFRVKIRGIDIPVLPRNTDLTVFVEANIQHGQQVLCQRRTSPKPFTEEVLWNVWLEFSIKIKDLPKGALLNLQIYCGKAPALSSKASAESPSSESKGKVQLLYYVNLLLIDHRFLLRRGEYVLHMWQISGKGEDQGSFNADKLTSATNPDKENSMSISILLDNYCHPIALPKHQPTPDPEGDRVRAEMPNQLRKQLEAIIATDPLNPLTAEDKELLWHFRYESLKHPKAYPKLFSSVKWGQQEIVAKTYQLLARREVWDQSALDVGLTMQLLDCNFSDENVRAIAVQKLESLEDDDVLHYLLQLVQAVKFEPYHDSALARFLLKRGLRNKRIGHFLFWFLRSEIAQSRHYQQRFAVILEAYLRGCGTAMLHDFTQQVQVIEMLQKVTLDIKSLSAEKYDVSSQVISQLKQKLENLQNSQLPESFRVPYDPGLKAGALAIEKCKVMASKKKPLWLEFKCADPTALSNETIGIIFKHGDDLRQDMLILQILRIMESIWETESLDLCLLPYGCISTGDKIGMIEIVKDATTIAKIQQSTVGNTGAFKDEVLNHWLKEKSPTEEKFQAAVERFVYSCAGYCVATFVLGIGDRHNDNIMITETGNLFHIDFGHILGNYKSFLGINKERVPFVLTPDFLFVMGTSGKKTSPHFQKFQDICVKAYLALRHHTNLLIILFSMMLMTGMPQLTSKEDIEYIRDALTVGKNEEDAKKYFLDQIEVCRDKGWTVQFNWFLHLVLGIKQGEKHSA

BRD4 = BRD4 (Homo sapiens, UniProt O60885); experiment: BRD4 inhibition assay (region not distinguished); assay type: biochemical; conditions: BRD4 regions 1 and 2
SKNBE (2) cells = experiment: Western blot of p-AKT and N-MYC in SKNBE(2) cells; assay type: cell-based, human; conditions: 24 hrs treatment, IGF stimulated
Protocol: Cells were stimulated with 50 ng/ml IGF for 30 min and used for lysate preparation. Proteins were quantitated by the BCA protein assay (Pierce). Equal amounts of protein were resolved by polyacrylamide gels, transferred to nitrocellulose membrane and probed by Western blot with the following primary antibodies: p-AKT(Ser473), API (Cell Signaling Technologies), N-MYC, CyclinD1 and β-actin (Santa Cruz Biotechnology).

[1] = test system: MYCN amplified SKNBE(2) cells; experiment: Brd4 chromatin precipitation, quantitative PCR of MYCN promoter region; assay type: cell-based, human; conditions: 24 hours exposure
Protocol: MYCN amplified SKNBE(2) cells were exposed to inhibitors for 24 hours then chromatin was precipitated with Brd4 (rabbit polyclonal antibody) along with rabbit IgG as a negative control (IgG). Precipitated chromatin was analyzed for the MYCN gene (2 sites within the MYCN promoter region) by quantitative PCR and enrichment is shown as the percentage of total input DNA (FIG. 4). The negative control region primers amplify within a gene desert region approximately 1 Mb away from MYCN (MYC-N NR). Error bars represent ±SEM of triplicate data. P<0.05 as compared to positive control (paired t-test). Positive control: No inhibitor; IP with BRD4 antibody, Negative Control: No inhibitor, IP with rabbit IgG.

Panc02 = experiment: Orthotopic pancreatic model of spontaneous metastasis; assay type: in vivo, WT mice; conditions: 50 mg/kg, three times a week
Protocol: Panc02 (1×10^6) tumor cells were injected into the pancreas of WT mice (n=18). After 20 days, mice were randomized into two groups. One group was treated with DMSO (control) and the other group was treated with 50 mg/kg of SF2523, three tunes a week. Tumors were removed 35 days after tumor implantation. Values are mean±SEM (n=8 in each gp; P<0.01; pair wise two-sided Student's t test). […] Values are mean±SEM (n=7; P<0.01; pair wise two-sided. Student's t test). The data are representative of three independent experiments performed.

IMR32 cell line = experiment: Real-time PCR of N-myc and Cyclin D1 mRNA; assay type: cell-based; conditions: 5 μM, 24 hrs
Protocol: Cells were stimulated with 50 ng/ml IGF and used for RNA Isolation after 24 hrs of treatment with various inhibitors. The results for N-Myc are shown in FIG. 7A and for Cyclin D1 in FIG. 7B.
The experiment of Example 7 was repeated in the IMR32 cell line (MYCN amplified neuroblastoma cancer cell line).

B16 melanoma cells = experiment: Mouse model of melanoma metastasis, B16 F10 luciferase cells by tail vein; assay type: in vivo, WT mice; conditions: 50 mg/kg every other day, 15 days
Description: The luciferase signal was monitored every third day by rejecting luciferin, until the lungs were harvested on day 15 (n=5). […] Lungs extracted from these animals are shown below the luciferase imaged pictures supporting the repression of tumor growth in Cmpd 28-treated mice.

PC3 = experiment: Cellular PI3K inhibitory activity, pAKT Ser473 ELISA; assay type: cell-based; conditions: Homo sapiens, PC-3; IGF-1 stimulated, pAKT serine 473
Protocol: Biological testing of compounds of Formula I. Representative compounds of the invention were tested for cellular PI3K inhibitory activity (as measured by the most robust marker of pathway activity pAKT) in a prostate cancer cell line (PC3), which is summarized in Table 3. […] After this time period the cells were serum starved for 5 hours followed by application of the test compound. Test compound was added as a DMSO (dimethyl sulfoxide) solution such that the final DMSO concentration in the cell media was less than or equal to 0.2% by volume. After 30 minutes of exposure the growth factor stimulant, human IGF-1 (Pepro Tech, Inc., Rocky Hill, N.J., Cat. #100-11), was added in each well. After 30 minutes of IGF-1 exposure, cells were removed the media and cell lysates were prepared using RIPA Lysis buffer (Upstate, Lake Placid, N.Y., Cat. #20-188), keeping on ice. The pAKT serine 473 level was measured in duplicate samples of the cell lysates using commercially available assays such as the Pathscan® Sandwich ELISA kit for Ser473 pAKT (Cell Signaling, Danvers, Mass. Cat. #7160). A SpectraMax Plus spectrophotometric plate reader (Molecular Devices, Sunnydale, Calif.) was used to measure the optical density signal for pAKT at 450 nm (OD450 nm). The pAKT OD450 nm readings were normalized by total protein amount in the cell lysates determined by standard methods.

NB9464 [2] = experiment: NB9464 neuroblastoma tumor growth in nude mice; conditions: 50 mg/kg, 3 days a week for 1.5 weeks, intra-peritoneal
Description: MYCN-overexpressing murine neuroblastoma cells (NB9464) were transplanted into nude mice, grown lot 24 days and randomized into two groups.

PI3Kα = PI3Kα (Homo sapiens (Human), UniProt P42336); experiment: PI3K alpha isoform inhibition; assay type: biochemical
PI3Kα, sequence (P42336 whole entry, canonical isoform): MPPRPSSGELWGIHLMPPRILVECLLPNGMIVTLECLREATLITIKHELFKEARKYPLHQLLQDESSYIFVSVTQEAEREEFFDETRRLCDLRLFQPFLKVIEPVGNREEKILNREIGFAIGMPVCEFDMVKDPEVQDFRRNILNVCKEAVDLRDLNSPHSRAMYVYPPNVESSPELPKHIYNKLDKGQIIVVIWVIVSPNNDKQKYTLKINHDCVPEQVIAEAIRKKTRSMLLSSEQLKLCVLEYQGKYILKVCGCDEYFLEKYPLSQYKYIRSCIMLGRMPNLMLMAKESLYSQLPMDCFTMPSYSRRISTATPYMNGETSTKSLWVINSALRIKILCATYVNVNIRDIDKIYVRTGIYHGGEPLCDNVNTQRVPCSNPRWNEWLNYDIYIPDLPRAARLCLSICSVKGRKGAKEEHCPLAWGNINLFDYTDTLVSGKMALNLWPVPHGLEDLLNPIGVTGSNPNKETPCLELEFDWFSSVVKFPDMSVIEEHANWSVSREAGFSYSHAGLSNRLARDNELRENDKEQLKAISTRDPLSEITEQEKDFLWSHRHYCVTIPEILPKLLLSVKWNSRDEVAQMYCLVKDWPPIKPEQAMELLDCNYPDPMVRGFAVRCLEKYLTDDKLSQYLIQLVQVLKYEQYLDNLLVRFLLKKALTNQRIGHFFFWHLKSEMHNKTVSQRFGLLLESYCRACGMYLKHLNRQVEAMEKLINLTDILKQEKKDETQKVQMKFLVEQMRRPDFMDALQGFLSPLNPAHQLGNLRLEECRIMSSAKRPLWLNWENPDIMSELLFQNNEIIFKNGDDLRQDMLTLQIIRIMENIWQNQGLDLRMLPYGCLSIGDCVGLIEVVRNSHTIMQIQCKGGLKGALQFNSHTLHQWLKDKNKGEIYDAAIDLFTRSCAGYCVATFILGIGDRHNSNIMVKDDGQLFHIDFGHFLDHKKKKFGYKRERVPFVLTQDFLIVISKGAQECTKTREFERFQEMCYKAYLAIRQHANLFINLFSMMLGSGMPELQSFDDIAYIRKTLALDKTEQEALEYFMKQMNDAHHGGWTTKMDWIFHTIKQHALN
PI3Kα, sequence (P27986 whole entry partner, canonical isoform): as the sequence (P27986 whole entry partner, canonical isoform) above

SKNBE(2) = experiment: Cytotoxicity / proliferation study, alone and in combination; assay type: cell-based, human
NB9464 [3] = experiment: as above; assay type: cell-based, murine
[4] = test system: MYCN-dependent MB patient derived xenograft (PDX) cell line; experiment: as above; assay type: cell-based
PI3K = PI3K inhibition (isoform not distinguished); assay type: biochemical
Protocol: as §1
All thienopyranone-based compounds tested inhibited either PI3K or BRD4 or both PI3K and BRD4. […] JQ1+, a known bromodomain inhibitor, was used as reference compound.

O=c1cc(N2CCOCC2)oc2c(-c3ccc4c(c3)OCCO4)csc12 [Cmpd 28]
IC50 (BRD4-1): 241 nM
IC50 (BRD4-2): 1550 nM
IC50 (PI3Kβ): 214 nM
IC50 (PI3Kδ): 960 nM
IC50 (PI3Kγ): 158 nM
BRD4 inhibition (BRD4): showed activity
MYCN protein quantity, Western blot (SKNBE (2) cells): decreased
pAKT, Western blot (SKNBE (2) cells): decreased
MYCN expression (Brd4 ChIP, MYCN promoter) [1]: significantly repressed MYCN expression
spontaneous metastasis (Panc02): blocks spontaneous metastasis
Cyclin D1 mRNA expression (IMR32 cell line): reducing mRNA expression
MYCN mRNA expression (IMR32 cell line): inhibits MYCN expression
luciferase bioimaging of cancer cells (B16 melanoma cells): little evidence of the presence of cancer cells
reduction in metastatic nodules (B16 melanoma cells): 60%
IC50 (PC3): 161 to 440 nM
tolerability / body weight (NB9464 [2]): well tolerated (no body weight loss
tumor growth compared to vehicle (NB9464 [2]): significantly blocked tumor growth

Cc1sc2c(c1C)C(c1ccc(Cl)cc1)=N[C@@H](CC(=O)OC(C)(C)C)c1nnc(C)n1-2 [JQ-1]
IC50 (PI3Kα): > 50000 nM
IC50 (PI3Kδ): > 50000 nM
IC50 (PI3Kγ): > 50000 nM
IC50 (SKNBE(2)): 1900 nM
IC50 (NB9464 [3]): 1600 nM
IC50 [4]: 2200 nM
PI3K inhibition (PI3K): does not inhibit PI3K
MYCN protein quantity, Western blot (SKNBE (2) cells): inhibited only MYCN quantities
MYCN expression (Brd4 ChIP, MYCN promoter) [1]: significantly repressed MYCN expression
